According to patent publication US8809341B2, “2,4-pyrimidinediamine compounds and uses as anti-proliferative agents” (Rigel Pharmaceuticals, Inc., priority 2003, dated 2014):
One block for each molecule: values may come before it.

What was measured:
Assay type in all cases: cell-based
[1] = system: HCT116; assay: in vitro antiproliferation assay, HCT116 (colon); details: HCT116 (colon); read-out: HCT116
Description: The IC50 values of various compounds against a various different tumor cell lines were determined using standard in vitro antiproliferation assays. The tumor cell lines tested were as follows: A549 (lung); H1299 (lung), ACHN (kidney/p53 wt), CAKI (renal cell carcinoma), NCI-H460 (lung); HCT116 (colon/p53w0; HELA (cervix/p53 wt), HUH7 (liver/p53 wt), HUVEC (primary endothelial), LNCAP (prostate), HT-29 (colon); MCF-7 (breast); MCF-7 (breast/ER positive), MDA MB435S (breast); MDA MB231 (breast/ER negative), DU145 (prostate); BxPC-3 (pancreatic); SKOV-3 (ovarian); HepG2 (hepatic), NDHF primary normal human dermal fibroblast), SKMEL28 (breast/p53mut), SKMEL5 (breast/p53 wt), U20S (bone) and PC3 (prostate). […] A blank indicates the specified compound was not tested against the specified cell line.
Many of the compounds were tested against other cell lines. Their activity is reported in TABLE 15, below, where +”, “−”, “−/+” or “+/−” values are as described for TABLES 1-14. Where the cell line includes a value in a parenthetical, the value indicates the seeding density at which the assay was performed

[2] = system: H1299 cells; assay: in vitro antiproliferation assay, H1299 (lung)
Summary of the method: (§1)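 Standard in vitro antiproliferation assays on tumour cell lines, including A549 and H1299 (both lung); IC50 values determined.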

[3] = system: A549 cells; assay: in vitro antiproliferation assay, A549 (lung)
Summary of the method: as §1

[4] = Table 5, in vitro antiproliferation, H1299 (lung) cells
[5] = Table 5, in vitro antiproliferation, A549 (lung) cells
[6] = H1299 (lung) cells, in vitro antiproliferation
[7] = A549 (lung) cells, in vitro antiproliferation
[8] = IC50 class against H1299 (lung) tumor cells
[9] = IC50 class against A549 (lung) tumor cells
[10] = in vitro antiproliferation, H1299 (lung) cells, Table 4, compounds with no designated stereochemistry tested as racemate
[11] = in vitro antiproliferation, A549 (lung) cells, Table 4, compounds with no designated stereochemistry tested as racemate

IC50 [1]: < 20 µM
SMILES: Cc1cc(Nc2ncc(F)c(Nc3ccc4c(c3)NC(=O)C(C)(C)O4)n2)cc(Cl)c1O [compound 358]

IC50 [1]: ≤ 20 µM
SMILES: CC(=O)N1CCN(c2ccc(Nc3ncc(F)c(Nc4ccc5c(n4)NC(=O)CO5)n3)cc2)CC1 [compound 419]

IC50 [1]: ≤ 20 µM
SMILES: CN1CCN(c2ccc(Nc3ncc(F)c(Nc4ccc5c(n4)NC(=O)CO5)n3)cc2)CC1 [compound 435]

IC50 [1]: ≤ 20 µM
SMILES: CN1CCN(c2ccc(Nc3ncc(F)c(Nc4ccc5c(n4)NC(=O)C(C)(C)O5)n3)cc2)CC1 [compound 436]

IC50 [1]: > 20 µM
SMILES: CC1(C)Oc2ccc(Nc3nc(Nc4cccc(O)c4)ncc3F)cc2NC1=O [compound 356]

IC50 [2, 4]: ≤ 20 µM
IC50 [3, 5]: ≤ 20 µM
SMILES: CN(c1ccc2c(c1)OCCO2)c1nc(Nc2cccc(-c3ncco3)c2)ncc1F [compound 549]

IC50 [2, 6]: ≤ 20 µM
IC50 [3, 7]: > 20 µM
SMILES: COC(=O)COc1cccc(Nc2ncc(F)c(Nc3cccc(OCC(=O)OC)c3)n2)c1 [compound 724]

IC50 [2, 8]: ≤ 20 µM
IC50 [3, 9]: ≤ 20 µM
SMILES: CN1CCN(c2cccc(Nc3ncc(F)c(NC(C)(C)C)n3)c2)CC1 [compound 221]

IC50 ([2]; Homo sapiens, NCI-H1299, H1299 (lung) cells): > 20 µM
IC50 ([3]; Homo sapiens, A549 (lung) cells): > 20 µM
SMILES: COc1cc(OC)c(Nc2ncc(F)c(Nc3ccc4c(c3)NC(=O)[C@H](C)O4)n2)cc1Cl [compound 1141]

IC50 ([2]; H1299 (lung) cells): > 20 µM
IC50 ([3]; A549 (lung) cells): ≤ 20 µM
SMILES: CCCCn1ncc2cc(Nc3ncc(F)c(Nc4ccc(OC)c(Cl)c4)n3)ccc21 [compound 1082]

IC50 ([2]; H1299 (lung) cells): ≤ 20 µM
IC50 ([3]; A549 (lung) cells): ≤ 20 µM
SMILES: CCCCn1ncc2cc(Nc3ncc(F)c(Nc4ccc5c(c4)NC(=O)C(C)(C)O5)n3)ccc21 [compound 1084]

IC50 ([2]; H1299 (lung) cells, antiproliferation): ≤ 20 µM
IC50 ([3]; A549 (lung) cells, antiproliferation): ≤ 20 µM
SMILES: CC(C)(C)OC(=O)NCc1ccc(Nc2ncc(F)c(Nc3ccc(CNC(=O)OC(C)(C)C)cc3)n2)cc1 [compound 1012]

IC50 [2, 10]: ≤ 20 µM
IC50 [3, 11]: ≤ 20 µM
SMILES: CC1(C)Oc2ccc(Nc3nc(Nc4cc(CO)cc(CO)c4)ncc3F)cc2NC1=O [compound 320]

IC50 [2, 8]: ≤ 20 µM
IC50 [3, 9]: ≤ 20 µM
SMILES: CCOC(=O)N1CCC(Nc2nc(Nc3ccc(N4CCN(C)CC4)c(Cl)c3)ncc2F)CC1 [compound 187]

IC50 ([2]; H1299 (lung) cells): ≤ 20 µM
IC50 ([3]; A549 (lung) cells): ≤ 20 µM
SMILES: CCCn1ncc2ccc(Nc3ncc(F)c(Nc4ccc(F)c(OC)c4)n3)cc21 [compound 1077]

IC50 [2, 10]: ≤ 20 µM
IC50 [3, 11]: ≤ 20 µM
SMILES: COc1cc(Nc2ncc(F)c(Nc3ccc4c(c3)NC(=O)C(C)S4(=O)=O)n2)cc(OC)c1 (racemic) [compound 250]

IC50 [2, 8]: > 20 µM
IC50 [3, 9]: > 20 µM
SMILES: COc1ccc(Nc2ncc(F)c(Nc3ccc4c(n3)NCCO4)n2)cc1Cl [compound 612]

IC50 ([2]; Homo sapiens, NCI-H1299, IC50 class against H1299 (lung) tumor cells): ≤ 20 µM
IC50 ([3]; Homo sapiens, IC50 class against A549 (lung) tumor cells): ≤ 20 µM
SMILES: CCOC(=O)N1CCN(c2cccc(Nc3ncc(F)c(Nc4cc(C(C)(C)C)[nH]n4)n3)c2)CC1 [compound 201]

IC50 [2, 4]: ≤ 20 µM
IC50 [3, 5]: ≤ 20 µM
SMILES: COc1cc(Nc2ncc(F)c(Nc3ccc4c(c3)OC(F)(F)O4)n2)cc(OC)c1OC [compound 560]

IC50 [2, 8]: ≤ 20 µM
IC50 [3, 9]: ≤ 20 µM
SMILES: CCN1CCN(c2ccc(Nc3ncc(F)c(NC(C)C)n3)cn2)CC1 [compound 225]

IC50 [2, 4]: ≤ 20 µM
IC50 [3, 5]: ≤ 20 µM
SMILES: Fc1cnc(Nc2cccc(Cl)c2)nc1Nc1ccc2c(c1)OC(F)(F)O2 [compound 513]

IC50 [2, 6]: ≤ 20 µM
IC50 [3, 7]: ≤ 20 µM
SMILES: COc1cc(Nc2ncc(F)c(Nc3cc(OC)cc(C(F)(F)F)c3)n2)cc(C(F)(F)F)c1 [compound 819]

IC50 [2, 4]: ≤ 20 µM
IC50 [3, 5]: ≤ 20 µM
SMILES: COC(=O)c1cc(Nc2ncc(F)c(Nc3ccc4c(c3)OCCO4)n2)cc(-c2ncco2)c1 [compound 558]

IC50 [2, 8]: ≤ 20 µM
IC50 [3, 9]: ≤ 20 µM
SMILES: CC(C)Nc1nc(Nc2cccc(N3CCN(C)CC3)c2)ncc1F [compound 219]

IC50 ([2]; H1299 (lung) cells): ≤ 20 µM
IC50 ([3]; A549 (lung) cells): ≤ 20 µM
SMILES: COc1ccc(Nc2nc(Nc3ccc4cnn(C(C)(C)CC5CCC5)c4c3)ncc2F)cc1Cl [compound 1102]

IC50 [2, 8]: ≤ 20 µM
IC50 [3, 9]: ≤ 20 µM
SMILES: CN1CCN(c2cccc(Nc3ncc(F)c(Nc4ccc5c(n4)NCCO5)n3)c2)CC1 [compound 609]

IC50 [2, 10]: ≤ 20 µM
IC50 [3, 11]: ≤ 20 µM
SMILES: COc1ccc(Nc2ncc(F)c(Nc3ccc4c(c3)NC(=O)CS4)n2)cc1F [compound 290]

IC50 [2, 6]: ≤ 20 µM
IC50 [3, 7]: ≤ 20 µM
SMILES: COc1cc(Nc2ncc(F)c(Nc3cc(OC)cc(C(F)(F)F)c3)n2)cc(OC)c1 [compound 818]
